Like-named read-outs stand apart in the source and are kept apart here.

For test [1], the system named is compound 48/80-induced lethality. Description: Protection of rats from compound 48/80-induced lethality. Type of test: in vivo, rats of an inbred Wistar strain. The note with it: Rattus norvegicus, 4 h, read-out: Compound 48/80 lethality test in rats ED50, s.c. or p.o. 1 h before compound 48/80 0.5 mg/kg i.v.; protection of 50% of animals, survival after 4 hours. In outline:
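Male inbred Wistar rats (240-260 g), starved overnight, dosed subcutaneously or orally with compound or 0.9% NaCl before compound 48/80 challenge. Survival at 4 hours counted as protection. ED50 in mg/kg is the dose protecting 50% of animals from lethality.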

The subject of a further test is effects of serotonin. Description: Antagonistic activity on the effects of serotonin in the gastric lesion test (lesions induced by compound 48/80). The class given is in vivo, rats of a Wistar inbred strain. The note with it: for ED50: Rattus norvegicus, po, read-out: gastric lesion test ED50. Here is the method:
Antagonistic activity on the effects of serotonin in the gastric lesion test.
The shock, followed by dead, can be avoided if the rats are pretreated with a classical H 1 antagonist.
Male rats of a Wistar inbred strain, weighing 220-250 g, were starved overnight, water being available ad libitum. The test compounds were administered orally as a solution or as a suspension in aqueous medium. A control rat and a "blank" rat received the test compound. One hour later 5-[4-(diphenylmethyl)1-piperazinylmethyl]-1-methyl-1H-benzimidazole-2-methanol was administered subcutaneously to all rats at the dose of 2.5 mg/kg. […] Four hours after the intravenous injection of compound 48/80, the rats were decapitated and the stomachs were removed. Subsequently the stomachs were inspected for distension and contents (blood, fluid, food) and thoroughly rinsed. The macroscopic lesions were scored from 0 to +++, 0 corresponding to complete absence of visible lesions and the highest score corresponding to reddish rough patches covering more than half the glandular area.
The second column of tables 1-4 show for a number of compounds of formula (I) the doses (in mg/kg body weight) at which the distension of the stomach as well as the lesions in the glandular area of the stomach are completely absent in 50% of the test rats (ED50 -value).

Where [2] appears, read: compound 48/80 1 mg/kg i.v., distension and lesions of stomach completely absent in 50% of rats.

Regarding `CC(C)NC(=O)CCN1CCC(Cc2nc3cccnc3n2Cc2ccc(F)cc2)CC1` [Compound 143, 4-[[3-[(4-fluorophenyl)methyl]-3H-imidazo[4,5-b]pyridin-2-yl]methyl]-N-(1-methylethyl)-1-piperidinepropanamide], the ED50 is 0.04 mg/kg in test [1] and 0.63 mg/kg with effects of serotonin (setting [2]).

For `O=C(NCCN1CCC(Cc2nc3ccccc3n2Cc2ccc(F)cc2)CC1)C(=O)c1cccs1` [Compound 439, N[2-[;b 4-[[1-[(4-fluorophenyl)methyl]-1H-benzimidazol-2-yl]methyl]-1-piperidinyl]ethyl]-α-oxo-2-thiopheneacetamide], the figures for the ED50 (in test [1]; in the test on effects of serotonin (setting [2])) were 0.16 mg/kg and 0.31 mg/kg, respectively.

For the molecule `CCOCCN1CCC(Cc2nc3cccnc3n2Cc2ccc(F)cc2)CC1` [Compound 126], the ED50 was found to be 0.04 mg/kg in test [1] and 0.63 mg/kg with effects of serotonin (setting [2]).

For `COc1ccc(CCN2CCC(Cc3nc4cccnc4n3Cc3ccc(F)cc3)CC2)cc1` [Compound 236], the ED50 was 0.08 mg/kg in test [1] and 0.63 mg/kg in the test with effects of serotonin (setting [2]).

For `CCOCCN1CCC(Cc2nc3ccccc3n2Cc2ccc(F)cc2)CC1` [Compound 133], the ED50 in test [1] is 0.02 mg/kg; in the test on effects of serotonin (setting [2]) it was 0.16 mg/kg.

`Fc1ccc(Cn2c(CC3CCN(CCNc4nc5ccccc5s4)CC3)nc3ccccc32)cc1` [Compound 367]: the ED50 (in test [1]; in the test with effects of serotonin (setting [2])) was 0.16 mg/kg each time.

For `Cc1csc(NCCN2CCC(Cc3nc4ccccc4n3Cc3ccc(F)cc3)CC2)n1` [Compound 456, 4-[(1-[(4-fluorophenyl)methyl]-1H-benzimidazol-2-yl]methyl]-N-(4-methyl-2-thiazolyl)-1-piperidineethanamine], the ED50 in test [1] turned out to be 0.01 mg/kg; with effects of serotonin (setting [2]) it was 0.63 mg/kg.

Regarding `Cc1cc(NCCN2CCC(Cc3nc4ccccc4n3Cc3ccc(F)cc3)CC2)nc(Cl)n1` [Compound 383, 2-chloro-N-[2-[4-[[1-[(4-fluorophenyl)methyl]-1H-benzimidazol-2-yl]methyl]-1-piperidinyl]ethyl]-6-methyl-4-pyrimidinamine], the figures for the ED50 (in test [1]; in the test on effects of serotonin (setting [2])) were 0.04 mg/kg and 0.16 mg/kg, respectively.

For `Cc1nc2n(c(=O)c1CCN1CCC(Oc3nc4ccccc4n3Cc3ccc(F)cc3)CC1)CCCC2` [Compound 264], the results for the ED50 (in test [1]; with effects of serotonin (setting [2])) were 0.04 mg/kg and 0.63 mg/kg, respectively.

Turning to `O=C(CCCN1CCC(Cc2nc3cccnc3n2Cc2ccc(F)cc2)CC1)c1ccc(F)cc1` [Compound 127], the ED50 in test [1] amounted to 0.08 mg/kg. The “gastric lesion test ED50” value in the test on effects of serotonin (oral, compound 48/80 1 mg/kg i.v., distension and lesions of stomach completely absent in 50% of rats, 1 mg/kg) is 0.63 mg/kg body weight.

Regarding `Cn1cccc1C(=O)NCCN1CCC(Cc2nc3ccccc3n2Cc2ccc(F)cc2)CC1` [Compound 433, N-[2-[4-[[1-[(4-fluorophenyl)methyl]-1H-benzimidazol-2-yl]methyl]-1-piperidinyl]ethyl]-1-methyl-1H-pyrrole-2-carboxamide], the ED50 in test [1] was determined as 0.01 mg/kg; in the test on effects of serotonin (setting [2]), 0.16 mg/kg.

Turning to `CCCC(=O)c1ccc(OC)c(C(=O)NCCN2CCC(Cc3nc4ccccc4n3Cc3ccc(F)cc3)CC2)c1` [Compound 441, N-[2-[4-[[1-[(4-fluorophenyl)methyl]-1H-benzimidazol-2-yl]methyl]-1-piperidinyl]ethyl]-2-methoxy-5-(1-oxobutyl)benzamide], the ED50 amounted to 0.08 mg/kg in test [1] and 0.16 mg/kg in the test on effects of serotonin (setting [2]).

On to `Fc1ccc(Cn2c(CC3CCN(CCc4ccccn4)CC3)nc3cccnc32)cc1` [Compound 101], for which the values for the ED50 (in test [1]; with effects of serotonin (setting [2])) were 0.02 mg/kg and 0.31 mg/kg, respectively.

In the case of `O=c1[nH]c2ccccc2c(=O)n1CCCCN1CCC(Cc2nc3ccccc3n2Cc2ccc(F)cc2)CC1` [Compound 489, 3-[4-[4-[[1-[(4-fluorophenyl)methyl]-1H-benzimidazol-2-yl]methyl]-1-piperidinyl]butyl]-2,4(1H,3H)-quinazolinedione], the ED50 worked out at 0.08 mg/kg in test [1] and 0.63 mg/kg in the test with effects of serotonin (setting [2]).

With `c1csc(Cn2c(CC3CCN(CCNc4nccs4)CC3)nc3ccccc32)c1` [Compound 356], the figures for the ED50 (in test [1]; in the test on effects of serotonin) were 0.02 mg/kg and 0.08 mg/kg, respectively.

Take `c1cnc(NCCN2CCC(Cc3nc4ccccc4n3Cc3cccs3)CC2)nc1` [Compound 336]: the figures for the ED50 (in test [1]; in the test on effects of serotonin) were 0.01 mg/kg and 0.08 mg/kg, respectively.

Consider `Fc1ccc(Cn2c(CC3CCN(CCNc4ncccn4)CC3)nc3cccnc32)cc1` [Compound 376, N-[2-[4-[[3-[(4-fluorophenyl)methyl]-3H-imidazo[4,5-b]pyridin-2-yl]methyl]-1-piperidinyl]ethyl]-2-pyrimidinamine], for which the ED50 in test [1] came to 0.02 mg/kg; in the test on effects of serotonin (setting [2]) it was 0.63 mg/kg.

Turning to `Fc1ccc(Cn2c(CC3CCN(CCNc4ncccn4)CC3)nc3ccncc32)cc1` [Compound 351, N-[2-[4-[[3-[(4-fluorophenyl)methyl]-3H-imidazo[4,5-c]pyridin-2-yl]methyl]-1-piperdinyl]-ethyl]-2-pyrimidinamine], the ED50 stood at 0.02 mg/kg in test [1] and 0.08 mg/kg in the test on effects of serotonin.

`COc1ccc(CCN2CCC(Cc3nc4ccccc4n3Cc3ccoc3)CC2)cc1` [Compound 260]: the values for the ED50 (in test [1]; in the test with effects of serotonin (setting [2])) were 0.01 mg/kg and 0.63 mg/kg, respectively.

As for `O=c1[nH]c2ccccc2n1CCCN1CCC(Cc2nc3ccccc3n2Cc2ccc(F)cc2)CC1` [Compound 207], the ED50 (in test [1]; in the test on effects of serotonin) was 0.08 mg/kg in each case.

`Fc1ccc(Cn2c(CC3CCN(CCNc4nc5cccnc5s4)CC3)nc3ccccc32)cc1` [Compound 330, N-[2-[4-[[1-[(4-fluorophenyl)methyl]-1H-benzimidazol-2-yl]methyl]-1-piperidinyl]ethyl]thiazolo[5,4-b]pyridin-2-amine]: the values for the ED50 (in test [1]; with effects of serotonin (setting [2])) were 0.08 mg/kg and 0.16 mg/kg, respectively.

With `CC(C)N1CCC(Cc2nc3ccccc3n2Cc2ccccc2)CC1` [Compound 94], the ED50 in test [1] is 0.08 mg/kg; in the test with effects of serotonin (setting [2]) it was 0.63 mg/kg.

Take `CN1CCC(Cc2nc3ccccc3n2Cc2ccc(F)cc2)CC1` [Compound 82]: the results for the ED50 (in test [1]; with effects of serotonin (setting [2])) were 0.005 mg/kg and 0.63 mg/kg, respectively.

As for `Fc1ccc(Cn2c(CC3CCNCC3)nc3ccccc32)cc1` [Compound 47, 1-[(4-fluorophenyl)methyl]-2-(4-piperidinylmethyl)-1H-benzimidazole], the ED50 in test [1] came out at 0.08 mg/kg; in the test with effects of serotonin (setting [2]), 0.63 mg/kg.

For `Fc1ccc(Cn2c(CC3CCN(CCn4c(=S)[nH]c5ccccc54)CC3)nc3ccccc32)cc1` [Compound 493, 1-[2-[4-[[1-[(4-fluorophenyl)methyl]-1H-benzimidazol-2-yl]methyl]-1-piperidinyl]ethyl]-1,3-dihydro-2H-benzimidazole-2-thione], the values for the ED50 (in test [1]; in the test on effects of serotonin) were 0.08 mg/kg and 0.04 mg/kg, respectively.

For the molecule `O=C(c1ccccc1)N(CCN1CCC(Cc2nc3ccccc3n2Cc2ccc(F)cc2)CC1)c1ncccn1` [Compound 508, N-[2-[4-[[1-[(4-fluorophenyl)methyl]-1H-benzimidazol-2-yl]methyl]-1-piperidinyl]ethyl]-N-(2-pyrimidinyl)benzamide], the values for the ED50 (in test [1]; in the test with effects of serotonin (setting [2])) were 0.08 mg/kg and 0.16 mg/kg, respectively.

Turning to `Cc1nc2n(c(=O)c1CCN1CCC(Cc3nc4ccccc4n3Cc3cccs3)CC1)CCCC2` [Compound 263], the ED50 (in test [1]; with effects of serotonin) was 0.04 mg/kg in each case.

Consider `COc1ccc(CCN2CCC(Cc3nc4cccnc4n3Cc3ccccc3)CC2)cc1` [Compound 198], for which the figures for the ED50 (in test [1]; in the test with effects of serotonin) were 0.04 mg/kg and 0.08 mg/kg, respectively.

For the molecule `c1ccc(Cn2c(CC3CCN(CCNc4nc5cnccc5[nH]4)CC3)nc3ccccc32)cc1` [Compound 422, N-[2-[4-[[1-(phenylmethyl)-1H-benzimidazol-2-yl]methyl]-1-piperidinyl]ethyl]-1H-imidazo[4,5-c]pyridin-2-amine], the ED50 (in test [1]; with effects of serotonin) was 0.04 mg/kg throughout.

For `CN(CCN1CCC(Cc2nc3ccccc3n2Cc2ccc(F)cc2)CC1)c1ncccn1` [Compound 514, N-[2-[4-[[1-[(4-fluorophenyl)methyl]-1H-benzimidazol-2-yl]methyl]-1-piperidinyl]ethyl]-N-methyl-2-pyrimidinamine], the ED50 in test [1] stood at 0.02 mg/kg; with effects of serotonin (setting [2]) it was 0.63 mg/kg.

Take `CC(C)NC(=O)CN1CCC(Cc2nc3cccnc3n2Cc2ccc(F)cc2)CC1` [Compound 128]: the ED50 was determined as 0.16 mg/kg in test [1] and 0.63 mg/kg in the test with effects of serotonin (setting [2]).

As for `S=C=NCCN1CCC(Cc2nc3ccccc3n2Cc2cccs2)CC1` [Compound 397], the ED50 (in test [1]; with effects of serotonin) was 0.04 mg/kg each time.

For the molecule `Cc1nc2scc(C)n2c(=O)c1CCN1CCC(Cc2nc3cccnc3n2Cc2ccco2)CC1` [Compound 151, 6-[2-[4-[[3-(2-furanylmethyl)-3H-imidazo[4,5-b]pyridin-2-yl]methyl]-1-piperidinyl]ethyl]-3,7-dimethyl-5H-thiazolo[3,2-a]pyrimidin-5-one], the ED50 in test [1] amounted to 0.02 mg/kg; in the test on effects of serotonin (setting [2]), 0.16 mg/kg.

As for `O=c1[nH]c2ccccc2c(=O)n1CCN1CCC(Cc2nc3ccccc3n2Cc2ccc(F)cc2)CC1` [Compound 209], the ED50 came to 0.08 mg/kg in test [1] and 0.63 mg/kg in the test with effects of serotonin (setting [2]).
